# In ChEMBL document CHEMBL1139636, “QSAR analysis of thiazole benzenesulfonamide substituted 3-pyridylethanolamines as beta3-adrenergic receptor agonist” (Bioorg Med Chem Lett, 2005):
# Target: Beta-3 adrenergic receptor (Homo sapiens, UniProt P13945)
# Experiment: Effective concentration to stimulate cAMP production in chinese hamster ovary cells expressing cloned human beta-3-adrenergic receptor
# Assay type: functional, cell-based, Cricetulus griseus
# Chain of Beta-3 adrenergic receptor (P13945 whole entry): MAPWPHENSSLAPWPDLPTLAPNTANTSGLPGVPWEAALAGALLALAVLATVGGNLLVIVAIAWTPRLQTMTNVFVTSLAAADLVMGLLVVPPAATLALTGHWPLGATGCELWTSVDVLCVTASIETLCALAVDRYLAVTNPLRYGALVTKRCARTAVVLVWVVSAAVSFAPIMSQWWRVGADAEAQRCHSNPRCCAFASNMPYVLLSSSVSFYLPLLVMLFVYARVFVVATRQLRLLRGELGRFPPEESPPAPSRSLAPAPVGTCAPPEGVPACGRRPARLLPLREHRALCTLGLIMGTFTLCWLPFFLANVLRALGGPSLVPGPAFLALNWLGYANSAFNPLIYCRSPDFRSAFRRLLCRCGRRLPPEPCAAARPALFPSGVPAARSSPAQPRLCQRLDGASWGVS
row,EC50,Structure (SMILES)
1,2.7 nM,O=S(=O)(Nc1ccc(CCNC[C@H](O)c2ccccc2)cc1)c1ccc(Cc2nc(-c3ccc4ncccc4c3)cs2)cc1
2,10 nM,CCCCCCCCc1csc(Cc2ccc(S(=O)(=O)Nc3ccc(CCNC[C@H](O)c4ccccc4)cc3)cc2)n1
3,33 nM,O=S(=O)(Nc1ccc(CCNC[C@H](O)c2ccccc2)cc1)c1ccc(Cc2nc(CCc3ccccc3)cs2)cc1
4,26 nM,O=S(=O)(Nc1ccc(CCNC[C@H](O)c2ccccc2)cc1)c1ccc(Cc2nc(CCC3CCCC3)cs2)cc1
5,9.5 nM,O=S(=O)(Nc1ccc(CCNC[C@H](O)c2ccccc2)cc1)c1ccc(Cc2nc(-c3ccc(F)cc3)cs2)cc1
6,5 nM,O=S(=O)(Nc1ccc(CCNC[C@H](O)c2ccccc2)cc1)c1ccc(Cc2nc(-c3cc4ccccc4o3)cs2)cc1
7,7.1 nM,O=S(=O)(Nc1ccc(CCNC[C@H](O)c2ccccc2)cc1)c1ccc(Cc2nc(-c3ccc(F)c(F)c3)cs2)cc1
8,9.1 nM,O=S(=O)(Nc1ccc(CCNC[C@H](O)c2ccccc2)cc1)c1ccc(Cc2nc(-c3c[nH]c4ccccc34)cs2)cc1
9,6.2 nM,O=S(=O)(Nc1ccc(CCNC[C@H](O)c2ccccc2)cc1)c1ccc(Cc2nc(Cc3ccc(F)cc3)cs2)cc1
10,51 nM,CC/C=C/CC/C=C/c1csc(Cc2ccc(S(=O)(=O)Nc3ccc(CCNC[C@H](O)c4ccccc4)cc3)cc2)n1
11,5.8 nM,O=S(=O)(Nc1ccc(CCNC[C@H](O)c2ccccc2)cc1)c1ccc(Cc2nc(-c3cc4ccccc4s3)cs2)cc1
12,7.3 nM,O=S(=O)(Nc1ccc(CCNC[C@H](O)c2ccccc2)cc1)c1ccc(Cc2nc(-c3cnc4ccccc4c3)cs2)cc1
13,12 nM,O=S(=O)(Nc1ccc(CCNC[C@H](O)c2ccccc2)cc1)c1ccc(CCc2nc(Cc3ccc4ccccc4c3)cs2)cc1
14,40 nM,O=S(=O)(Nc1ccc(CCNC[C@H](O)c2ccccc2)cc1)c1ccc(Cc2nc(-c3cccnc3)cs2)cc1
15,1.2 nM,CCCCCCc1ccc(-c2csc(Cc3ccc(S(=O)(=O)Nc4ccc(CCNC[C@H](O)c5ccccc5)cc4)cc3)n2)cc1
16,2.4 nM,CC(C)(C)c1ccc(-c2csc(Cc3ccc(S(=O)(=O)Nc4ccc(CCNC[C@H](O)c5ccccc5)cc4)cc3)n2)cc1
17,45 nM,O=S(=O)(Nc1ccc(CCNC[C@H](O)c2ccccc2)cc1)c1ccc(Cc2nc(-c3ccc(O)cc3)cs2)cc1
18,50 nM,CC(=O)NCCCCCc1csc(Cc2ccc(S(=O)(=O)Nc3ccc(CCNC[C@H](O)c4ccccc4)cc3)cc2)n1
19,22 nM,O=S(=O)(Nc1ccc(CCNC[C@H](O)c2ccccc2)cc1)c1ccc(Cc2nc(-c3ccccn3)cs2)cc1
20,2 nM,O=S(=O)(Nc1ccc(CCNC[C@H](O)c2ccccc2)cc1)c1ccc(Cc2nc(-c3ccc4ccccc4c3)cs2)cc1
21,45 nM,CC(=O)Nc1ccc(-c2csc(Cc3ccc(S(=O)(=O)Nc4ccc(CCNC[C@H](O)c5ccccc5)cc4)cc3)n2)cc1
22,9.8 nM,CCCCCCCCc1csc(CCc2ccc(S(=O)(=O)Nc3ccc(CCNC[C@H](O)c4ccccc4)cc3)cc2)n1
23,33 nM,O=S(=O)(Nc1ccc(CCNC[C@H](O)c2ccccc2)cc1)c1ccc(Cc2nc(Cc3ccc4ccccc4c3)cs2)cc1
